Source: article PMC11864037 (RSC Advances, 2025)
Like-named read-outs stand apart in the source and are kept apart here.

Tests used:
SARS-CoV-2 M^pro = SARS-CoV-2 M^pro (Severe acute respiratory syndrome coronavirus 2, UniProt P0DTD1); assay: biochemical; conditions: for inhibition against M^pro: concentration not given
[1] = MTT cytotoxic assay in Vero-E6 cells; assay type: cell-based; conditions: African green monkey
SARS-CoV-2 = conditions: cited from earlier work
M^pro = conditions: repurposed drug; cited from earlier work

Structure (SMILES) | IC50 (SARS-CoV-2 M^pro) [µM] | also measured
COC(=O)c1ccc(C2NC(=S)NC(C(F)(F)F)=C2C(=O)N[C@@H](Cc2c[nH]cn2)C(=O)O)cc1 (stereo partly drawn) [8h] | 34.9 | 
CS(=O)(=O)n1cc2c(n1)CN(CC(=O)SC1=NC(c3ccc(C(F)(F)F)cc3)C(C(=O)N[C@@H](Cc3ccc(O)cc3)C(=O)O)=C(C(F)(F)F)N1)C2 (stereo partly drawn) [12i, (2-((2-(2-(Methylsulfonyl)-2,6-dihydropyrrolo[3,4-c]pyrazol-5(4H)-yl)acetyl)thio)-6-(trifluoromethyl)-4-(4-(trifluoromethyl)phenyl)-1,4-dihydropyrimidine-5-carbonyl)-L-tyrosine] |  | CC50 at 48 h [1]: 243 µM
O=C(O)CC[C@H](NC(=O)C1=C(C(F)(F)F)NC(=S)NC1c1ccc([N+](=O)[O-])cc1)C(=O)O (stereo partly drawn) [8f] | 36.8 | 
O=C(CN1CCn2c(nnc2C(F)(F)F)C1)SC1=NC(c2ccc(C(F)(F)F)cc2)C(C(=O)N[C@@H](Cc2c[nH]cn2)C(=O)O)=C(C(F)(F)F)N1 (stereo partly drawn) [12d, (6-(Trifluoromethyl)-2-((2-(3-(trifluoromethyl)-5,6-dihydro-[1,2,4]triazolo[4,3-a]pyrazin-7(8H)-yl)acetyl)thio)-4-(4-(trifluoromethyl)phenyl)-1,4-dihydropyrimidine-5-carbonyl)histidine] | 14.4 | 
CS(=O)(=O)n1cc2c(n1)CN(CC(=O)SC1=NC(c3ccc([N+](=O)[O-])cc3)C(C(=O)Nc3ccc(S(=O)(=O)O)cc3)=C(C(F)(F)F)N1)C2 (stereo not drawn) [12k, 4-(2-((2-(2-(Methylsulfonyl)-2,6-dihydropyrrolo[3,4-c]pyrazol-5(4H)-yl)acetyl)thio)-4-(4-nitrophenyl)-6-(trifluoromethyl)-1,4-dihydropyrimidine-5-carboxamido)benzene-sulfonic acid] | 0.146 | CC50 at 48 h [1]: 239 µM
CS(=O)(=O)n1cc2c(n1)CN(CC(=O)SC1=NC(c3ccc([N+](=O)[O-])cc3)C(C(=O)N[C@@H](CCC(=O)O)C(=O)O)=C(C(F)(F)F)N1)C2 (stereo partly drawn) [12j, (2-((2-(2-(Methylsulfonyl)-2,6-dihydropyrrolo[3,4-c]pyrazol-5(4H)-yl)acetyl)thio)-4-(4-nitrophenyl)-6-(trifluoromethyl)-1,4-dihydropyrimidine-5-carbonyl)-L-glutamic acid] | 0.063 | inhibition against M^pro (SARS-CoV-2 M^pro): over 50%; CC50 at 48 h [1]: 211 µM
CS(=O)(=O)n1cc2c(n1)CN(CC(=O)SC1=NC(c3ccc(C(F)(F)F)cc3)C(C(=O)N[C@@H](Cc3c[nH]cn3)C(=O)O)=C(C(F)(F)F)N1)C2 (stereo partly drawn) [12h, (2-((2-(2-(Methylsulfonyl)-2,6-dihydropyrrolo[3,4-c]pyrazol-5(4H)-yl)acetyl)thio)-6-(trifluoromethyl)-4-(4-(trifluoromethyl)phenyl)-1,4-dihydropyrimidine-5-carbonyl)histidine] | 16.3 | 
NC1CCCN(CC(=O)SC2=NC(c3ccc(C(F)(F)F)cc3)C(C(=O)N[C@@H](Cc3ccc(O)cc3)C(=O)O)=C(C(F)(F)F)N2)C1 (stereo partly drawn) [12g, (2-((2-(3-Aminopiperidin-1-yl)acetyl)thio)-6-(trifluoromethyl)-4-(4-(trifluoromethyl)-phenyl)-1,4-dihydropyrimidine-5-carbonyl)-L-tyrosine] | 0.21 ± 0.01 | 
O=C(Nc1ccc(S(=O)(=O)O)cc1)C1=C(C(F)(F)F)NC(=S)NC1c1ccc(C(F)(F)F)cc1 (stereo not drawn) [8c] | 28.2 | 
O=C(N[C@@H](Cc1c[nH]cn1)C(=O)O)C1=C(C(F)(F)F)NC(=S)NC1c1ccc(C(F)(F)F)cc1 (stereo partly drawn) [8d] | 30.7 | 
O=C(CN1CCn2c(nnc2C(F)(F)F)C1)SC1=NC(c2ccc(C(F)(F)F)cc2)C(C(=O)N[C@@H](Cc2ccc(O)cc2)C(=O)O)=C(C(F)(F)F)N1 (stereo partly drawn) [12e, (6-(Trifluoromethyl)-2-((2-(3-(trifluoromethyl)-5,6-dihydro-[1,2,4]triazolo[4,3-a]-pyrazin-7(8H)-yl)acetyl)thio)-4-(4-(trifluoromethyl)phenyl)-1,4-dihydropyrimidine-5-carbonyl)-L-tyrosine] | 0.73 ± 0.04 | 
O=C(O)CC[C@H](NC(=O)C1=C(C(F)(F)F)NC(SC(=O)CN2CCn3c(nnc3C(F)(F)F)C2)=NC1c1ccc(C(F)(F)F)cc1)C(=O)O (stereo partly drawn) [12a, (6-(Trifluoromethyl)-2-((2-(3-(trifluoromethyl)-5,6-dihydro-[1,2,4]triazolo[4,3-a]-pyrazin-7(8H)-yl)acetyl)thio)-4-(4 (trifluoromethyl)phenyl)-1,4-dihydropyrimidine-5-carbonyl)-L-glutamic acid] | 0.15 | 
Cn1cnc(Cn2c(=O)[nH]/c(=N\c3cc4cn(C)nc4cc3Cl)n(Cc3cc(F)c(F)cc3F)c2=O)n1 [ensitrelvir] |  | EC50 (SARS-CoV-2): 0.37 µM
CC(C)(C)[C@H](NC(=O)C(F)(F)F)C(=O)N1C[C@H]2[C@@H]([C@H]1C(=O)N[C@H](C#N)C[C@@H]1CCNC1=O)C2(C)C [nirmatrelvir] |  | EC50 (SARS-CoV-2; read-out: antiviral activity EC50): 0.074 µM
O=C(N[C@@H](Cc1ccc(O)cc1)C(=O)O)C1=C(C(F)(F)F)NC(=S)NC1c1ccc(C(F)(F)F)cc1 (stereo partly drawn) [8e] | 25.3 | 
CC(C)(C)NC(=O)N[C@H](C(=O)N1C[C@H]2[C@@H]([C@H]1C(=O)NC(CC1CCC1)C(=O)C(N)=O)C2(C)C)C(C)(C)C (stereo partly drawn) [boceprevir] |  | IC50 (M^pro): 4.13 µM
O=C(O)C[C@H](NC(=O)C1=C(C(F)(F)F)NC(=S)NC1c1ccc(C(F)(F)F)cc1)C(=O)O (stereo partly drawn) [8b] | 44.7 ± 1.36 | 
COC(=O)c1ccc(C2N=C(SC(=O)CN3CCn4c(nnc4C(F)(F)F)C3)NC(C(F)(F)F)=C2C(=O)N[C@@H](Cc2c[nH]cn2)C(=O)O)cc1 (stereo partly drawn) [12l, (4-(4-(Methoxycarbonyl)phenyl)-6-(trifluoromethyl)-2-((2-(3-(trifluoromethyl)-5,6-dihydro-[1,2,4]triazolo[4,3-a]pyrazin-7(8H)-yl)acetyl)thio)-1,4-dihydropyrimidine-5-carbonyl)-L-histidine] | 0.054 | inhibition against M^pro (SARS-CoV-2 M^pro): over 50%; CC50 at 48 h [1]: 198 µM
O=C(O)CC[C@H](NC(=O)C1=C(C(F)(F)F)NC(=S)NC1c1ccc(C(F)(F)F)cc1)C(=O)O (stereo partly drawn) [8a] | 23.2 | 
